Assays:
Details in all cases: incubation time: 72 h
DU-4475 [1] = test: normalised response (% of control), CellTiter-Glo; higher = more viable cells (100 = DMSO, 0 = benzethonium chloride kill control)
Procedure, shortened: (§1)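 Breast cancer cell lines in 20 µl suspension were added to 384-well plates containing compound at 5 concentrations, spaced in 10-fold steps across a 10,000-fold range chosen for each compound, and incubated for 72 h. CellTox Green fluorescence was read at 485/520 nm, followed by CellTiter-Glo luminescence after 10 min at room temperature. Signals on each plate were normalised so that 0.1 % DMSO equals 100 and a positive kill control equals 0. Every value in the table is the normalised signal at one concentration of the series.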

SK-BR-3 = test: as above
Procedure, shortened: as §1

CAL-148 [2] = test: as above
Procedure, shortened: as §1

HCC1143 [3] = test: as above
Procedure, shortened: as §1

HCC1599 [4] = test: as above
Procedure, shortened: as §1

MCF-10A [5] = test: as above
Procedure, shortened: as §1

BT-549 [6] = test: as above
Procedure, shortened: as §1

HDQ-P1 [7] = test: as above
Procedure, shortened: as §1

Hs578T = test: as above
Procedure, shortened: as §1

MFM-223 [8] = test: as above
Procedure, shortened: as §1

CAL-51 [9] = test: as above
Procedure, shortened: as §1

CAL-120 [10] = test: as above
Procedure, shortened: as §1

MDA-MB-468 [11] = test: as above
Procedure, shortened: as §1

MDA-MB-231 [12] = test: as above
Procedure, shortened: as §1

BT-474 [13] = test: as above
Procedure, shortened: as §1

HCC1937 [14] = test: as above
Procedure, shortened: as §1

MDA-MB-453 [15] = test: as above
Procedure, shortened: as §1

CAL-85-1 [16] = test: as above
Procedure, shortened: as §1

MDA-MB-436 [17] = test: as above
Procedure, shortened: as §1

DU-4475 [18] = test: normalised response (% of control), CellTox Green; higher = less cell death (100 = DMSO, 0 = benzethonium chloride kill control)
Procedure, shortened: as §1

CAL-148 [19] = test: as above
Procedure, shortened: as §1

HCC1143 [20] = test: as above
Procedure, shortened: as §1

HCC1599 [21] = test: as above
Procedure, shortened: as §1

MCF-10A [22] = test: as above
Procedure, shortened: as §1

BT-549 [23] = test: as above
Procedure, shortened: as §1

HDQ-P1 [24] = test: as above
Procedure, shortened: as §1

MFM-223 [25] = test: as above
Procedure, shortened: as §1

CAL-51 [26] = test: as above
Procedure, shortened: as §1

CAL-120 [27] = test: as above
Procedure, shortened: as §1

MDA-MB-468 [28] = test: as above
Procedure, shortened: as §1

MDA-MB-231 [29] = test: as above
Procedure, shortened: as §1

BT-474 [30] = test: as above
Procedure, shortened: as §1

HCC1937 [31] = test: as above
Procedure, shortened: as §1

MDA-MB-453 [32] = test: as above
Procedure, shortened: as §1

CAL-85-1 [33] = test: as above
Procedure, shortened: as §1

MDA-MB-436 [34] = test: as above
Procedure, shortened: as §1

| Compound | normalised response (DU-4475 [1]) [%] | normalised response (SK-BR-3) [%] | normalised response (CAL-148 [2]) [%] | normalised response (HCC1143 [3]) [%] | normalised response (HCC1599 [4]) [%] | normalised response (MCF-10A [5]) [%] | normalised response (BT-549 [6]) [%] | normalised response (HDQ-P1 [7]) [%] | normalised response (Hs578T) [%] | normalised response (MFM-223 [8]) [%] | normalised response (CAL-51 [9]) [%] | normalised response (CAL-120 [10]) [%] | normalised response (MDA-MB-468 [11]) [%] | normalised response (MDA-MB-231 [12]) [%] | normalised response (BT-474 [13]) [%] | normalised response (HCC1937 [14]) [%] | normalised response (MDA-MB-453 [15]) [%] | normalised response (CAL-85-1 [16]) [%] | normalised response (MDA-MB-436 [17]) [%] | normalised response (DU-4475 [18]) [%] | normalised response (CAL-148 [19]) [%] | normalised response (HCC1143 [20]) [%] | normalised response (HCC1599 [21]) [%] | normalised response (MCF-10A [22]) [%] | normalised response (BT-549 [23]) [%] | normalised response (HDQ-P1 [24]) [%] | normalised response (MFM-223 [25]) [%] | normalised response (CAL-51 [26]) [%] | normalised response (CAL-120 [27]) [%] | normalised response (MDA-MB-468 [28]) [%] | normalised response (MDA-MB-231 [29]) [%] | normalised response (BT-474 [30]) [%] | normalised response (HCC1937 [31]) [%] | normalised response (MDA-MB-453 [32]) [%] | normalised response (CAL-85-1 [33]) [%] | normalised response (MDA-MB-436 [34]) [%] |
| --- | --- | --- | --- | --- | --- | --- | --- | --- | --- | --- | --- | --- | --- | --- | --- | --- | --- | --- | --- | --- | --- | --- | --- | --- | --- | --- | --- | --- | --- | --- | --- | --- | --- | --- | --- | --- |
| Cc1c(C(=O)Nc2ccc(N3C[C@@H](C)O[C@@H](C)C3)nc2)cccc1-c1ccc(OC(F)(F)F)cc1 [Erismodegib] (1000 nM) | 98.9 | 81.7 | 98.5 | 89.8 | 101 | 85.6 | 90.5 | 91.7 | 101 | 84.9 | 66.1 | 96.5 | 93.7 | 94.2 | 81.7 | 97.9 | 79.2 | 93 | 84.6 | 97.6 | 110 | 110 | 103 | 107 | 136 | 99.7 | 101 | 97.5 | 99.7 | 111 | 72.4 | 103 | 74.5 | 101 | 104 | 94.7 |
| CO[C@H](C(=O)[C@@H](O)[C@@H](C)O)[C@@H]1Cc2cc3cc(O[C@H]4C[C@@H](O[C@@H]5C[C@@H](O)[C@H](O)[C@@H](C)O5)[C@H](O)[C@@H](C)O4)c(C)c(O)c3c(O)c2C(=O)[C@H]1O[C@H]1C[C@@H](O[C@@H]2C[C@@H](O)[C@@H](O[C@@H]3C[C@](C)(O)[C@H](O)[C@@H](C)O3)[C@@H](C)O2)[C@H](O)[C@@H](C)O1 [Plicamycin] (10 nM) | 107 | 111 | 116 | 103 | 117 | 114 | 104 | 96.4 | 105 | 108 | 74.9 | 101 | 109 | 103 | 108 | 97.7 | 118 | 103 | 101 |  |  |  |  |  |  |  |  |  |  |  |  |  |  |  |  |  |
| C[C@]12C=CC(=O)C=C1CC[C@@H]1[C@@H]2C(=O)C[C@@]2(C)[C@H]1CC[C@]2(O)C(=O)CO [Prednisone] (10 nM) | 107 | 123 | 108 | 101 | 96.9 | 109 | 98 | 96.3 | 96.7 | 104 | 118 | 104 | 98.4 | 98.7 | 103 | 95.8 | 118 | 99.9 | 101 |  |  |  |  |  |  |  |  |  |  |  |  |  |  |  |  |  |
| CO[C@H]1C[C@@H]2CC[C@@H](C)[C@@](O)(O2)C(=O)C(=O)N2CCCC[C@H]2C(=O)O[C@H]([C@H](C)C[C@@H]2CC[C@@H](O)[C@H](OC)C2)CC(=O)[C@H](C)/C=C(\C)[C@@H](O)[C@@H](OC)C(=O)[C@H](C)C[C@H](C)/C=C/C=C/C=C/1C [Sirolimus] (0.01 nM) | 104 | 106 | 91.1 | 92.4 | 98.3 | 106 | 97.6 | 100 | 94.7 | 95.5 | 87.1 | 95.9 | 94.1 | 93.6 | 99.1 | 105 | 103 | 89.9 | 103 |  |  |  |  |  |  |  |  |  |  |  |  |  |  |  |  |  |
| CN1CCN(c2nc(C3=C(c4c[nH]c5ccccc45)C(=O)NC3=O)c3ccccc3n2)CC1 [Sotrastaurin] (10 nM) | 96.8 | 124 | 93.1 | 96.1 | 105 | 99.6 | 94.6 | 100 | 101 | 93.6 | 123 | 91.3 | 93.6 | 105 | 93.5 | 96.6 | 96.1 | 95.8 | 94.2 |  |  |  |  |  |  |  |  |  |  |  |  |  |  |  |  |  |
| CC/C(=C(\c1ccccc1)c1ccc(OCCN(C)C)cc1)c1ccccc1 [Tamoxifen] (10 nM) | 104 | 100 | 108 | 114 | 103 | 112 | 91.8 | 104 | 97.3 | 108 | 83.8 | 100 | 99.2 | 100 | 103 | 103 | 98.7 | 98.8 | 100 |  |  |  |  |  |  |  |  |  |  |  |  |  |  |  |  |  |
| CN1CCc2c(c3ccccc3n2Cc2ccc(C(=O)NO)cc2)C1 [Tubastatin A] (1 nM) | 102 | 99.3 | 94.9 | 98 | 101 | 99.8 | 104 | 96.4 | 97.6 | 101 | 88.4 | 92.7 | 99.5 | 96.8 | 97.3 | 97.6 | 103 | 103 | 87.7 |  |  |  |  |  |  |  |  |  |  |  |  |  |  |  |  |  |
| CN1CCc2c(c3ccccc3n2Cc2ccc(C(=O)NO)cc2)C1 [Tubastatin A] (10 nM) | 100 | 93.8 | 107 | 95.2 | 92.8 | 101 | 96.3 | 99.4 | 102 | 102 | 67.6 | 96.1 | 102 | 92.4 | 92.7 | 99.6 | 94.1 | 107 | 95.2 |  |  |  |  |  |  |  |  |  |  |  |  |  |  |  |  |  |
| CCc1c(C(=O)C(N)=O)c2c(OCC(=O)O)cccc2n1Cc1ccccc1 [Varespladib] (1 nM) | 93.6 | 101 | 109 | 99 | 102 | 110 | 98.7 | 100 | 103 | 97.7 | 100 | 98.1 | 89.2 | 111 | 97.6 | 96.6 | 106 | 97.9 | 102 |  |  |  |  |  |  |  |  |  |  |  |  |  |  |  |  |  |
| CCc1c(C(=O)C(N)=O)c2c(OCC(=O)O)cccc2n1Cc1ccccc1 [Varespladib] (10 nM) | 102 | 99.1 | 104 | 102 | 95.9 | 105 | 92.9 | 97.1 | 104 | 102 | 107 | 96 | 98.9 | 99.7 | 97.2 | 97.7 | 95.4 | 97.3 | 96 |  |  |  |  |  |  |  |  |  |  |  |  |  |  |  |  |  |
| CCc1c(C(=O)C(N)=O)c2c(OCC(=O)O)cccc2n1Cc1ccccc1 [Varespladib] (1000 nM) | 101 | 100 | 104 | 106 | 96.4 | 104 | 94.2 | 100 | 102 | 95.8 | 106 | 98.2 | 100 | 103 | 92.6 | 100 | 99.8 | 97.6 | 94 | 102 | 100 | 108 | 99.3 | 97.7 | 102 | 114 | 97 | 110 | 106 | 105 | 103 | 99.9 | 105 | 109 | 114 | 103 |
| CC[C@@H]1C(=O)N(C)c2cnc(Nc3ccc(C(=O)N[C@H]4CC[C@H](N5CCN(CC6CC6)CC5)CC4)cc3OC)nc2N1C(C)C [Volasertib] (1 nM) | 100 | 98.5 | 105 | 99.9 | 113 | 102 | 102 | 92.5 | 103 | 98.3 | 111 | 100 | 90.1 | 97.6 | 89.7 | 99.2 | 77.1 | 102 | 100 |  |  |  |  |  |  |  |  |  |  |  |  |  |  |  |  |  |

Source: the supplement of paper PMC4862054
